Like-named read-outs stand apart in the source and are kept apart here. Square brackets hold non-standard residues; d marks the D form. Ends that are not written are not given here. Peptide text beside a SMILES is read from it.
Experiments:
guinea-pig platelets = test: Guinea-pig platelet aggregation assay; format: cell-based; details: for Platelet Aggreg (threshold concentration producing visible platelet aggregation): guinea-pig platelets, threshold response
Protocol: This assay was performed on platelets obtained from the arterial blood of anesthetized male Hartley guinea pigs according to previously published methods (Ember et al., 1992, supra). Briefly, platelet-rich plasma was prepared and diluted to 3×10^8 platelets/ml in 0.39% sodium citrate solution. Peptide samples were diluted in a stepwise fashion in 1.5-fold dilutions and placed in 96-well microplates. A […] peptide sample, […] of platelet-rich plasma, and one 3 mm glass bead were placed in each well. The plates were shaken horizontally at 100 rpm for 5 min at 37° C. Platelet aggregation was evaluated visually in an inverted microscope at 40× magnification. The greatest dilution of peptide producing visible aggregation was scored as the threshold concentration for activity. Natural C5a and C3a were included as internal standards. At least three independent duplicate determinations were conducted for every peptide.

human neutrophils (PMN) [1] = molecular target: T1, human neutrophils (PMN) (Homo sapiens, UniProt P21730); format: cell-based
T1 sequence (P21730 1-350): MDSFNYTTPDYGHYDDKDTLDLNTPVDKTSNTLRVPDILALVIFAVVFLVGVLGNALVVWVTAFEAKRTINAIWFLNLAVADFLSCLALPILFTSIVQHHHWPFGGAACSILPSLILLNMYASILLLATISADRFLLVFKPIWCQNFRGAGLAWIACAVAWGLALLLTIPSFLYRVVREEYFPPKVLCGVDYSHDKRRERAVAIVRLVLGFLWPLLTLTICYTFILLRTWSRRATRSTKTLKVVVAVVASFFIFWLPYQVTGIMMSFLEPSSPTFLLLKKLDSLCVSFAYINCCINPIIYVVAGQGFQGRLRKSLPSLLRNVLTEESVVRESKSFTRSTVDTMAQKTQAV
Protocol: Neutrophil polarization assays were conducted as described by Ember et al., 1992, supra. Human neutrophils (PMN) were prepared according to the procedure described by Dahinden et al. (1979), J. Immunol., 130: 857-862. The assay for measuring the effect of C5a analogs on PMN polarization was described by Haston & Shields (1985), J. Immunol. Methods, 81: 229-237. Briefly, PMN (1×10^6 cells/ml) were suspended in 10 mM 3- (N-morpholino) propane sulfonic acid (Sigma Chemical Co.) containing EBSS. […] After 10 minutes of incubation at room temperature, the cells were washed twice and stored until microscopic examination. Cells deviating from the typical spherical shape were visually scored as polarized. Results are expressed as percent of polarized cells per total cells counted (300 cells counted/sample).

human neutrophils (PMN) [2] = molecular target: T1, human neutrophils (PMN); format: cell-based; remark: listed apart in the source
Protocol: The release of glucuronidase from human neutrophils was determined as described by Schroder et al. (1987), J. Immunol., 139: 3474-3483. Briefly, human neutrophils were pretreated with cytochalasin B (5 μg/ml, 10 min, 37° C.). The cells (10^6) were incubated in the presence of stimulants for 60 minutes at 37° C. in a final volume of 200 μl and then centrifuged. The supernatant was collected and 50 μl were incubated with 50 μl of 0.01 M P-nitrophenyl-β-D-glucuronide (in 0.1 M sodium acetate at pH 4 for 18 h) as triplicate determinations in 96-well microtiter plates (Corning). The reaction was stopped by addition of 100 μl of 0.4 M gly buffer at pH 10. The reaction developed color that was read at 405 nm in a Titertec Multiscan (MCC/340) ELISA reader. The β-glucuronidase released was expressed as the percentage of total enzyme in the cell that could be released by addition of 0.2% Triton X-100 (Pierce).

human fetal artery = molecular target: T2, human fetal artery (Homo sapiens, UniProt P21730); test: Smooth muscle contraction of human fetal artery (spasmogenic assay); format: cell-based
T2 sequence (P21730 1-350): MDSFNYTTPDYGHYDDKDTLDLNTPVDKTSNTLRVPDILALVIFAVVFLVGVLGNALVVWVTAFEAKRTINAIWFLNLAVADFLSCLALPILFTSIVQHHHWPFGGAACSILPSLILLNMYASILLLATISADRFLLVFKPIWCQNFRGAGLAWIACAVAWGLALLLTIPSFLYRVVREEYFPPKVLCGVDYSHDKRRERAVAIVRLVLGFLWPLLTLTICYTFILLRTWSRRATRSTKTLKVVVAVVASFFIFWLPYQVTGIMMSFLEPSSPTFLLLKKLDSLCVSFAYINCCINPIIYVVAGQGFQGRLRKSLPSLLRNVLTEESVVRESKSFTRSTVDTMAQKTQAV
Protocol: Tissue strips were suspended in 2 ml organ baths, containing physiological salt solution (Krebs-Ringers solution: 118 mM NaCl, 4.7 mM KCl, 2.5 mM CaCl2, 25 mM NaHCO3, 1.2 mM KH2PO4, 1.2 mM MgSO4, 10 mM Glucose) maintained at 37° C., pH 7.4 and continuously aerated with a […] mixture. Each tissue preparation was equilibrated for 1 hr prior to testing with peptides. All drugs were kept on ice during the procedure and isometric tensions were measured using strain-gauge transducers (Grass FT-03) with a computerized chart recording system (MacLab/8). After the contraction to each peptide reached a plateau, histamine (10 μM) was added to obtain the maximum tissue response. Because tachyphylaxis occurs rapidly to single doses of C5a or peptides, cumulative dose-response curves could not be obtained. Instead, the dose-response profile was compiled from multiple strips from each tissue. After exposing each strip to a single concentration of the peptide followed by supramaximal histamine, the response was expressed as a percentage of the maximal contraction to histamine. Full dose-response curves for C5a (human recombinant C5a; Sigma) or individual peptides were performed in each experiment for each tissue and the EC50 values (i.e., concentration of peptide producing 50t of the maximal response to each peptide) obtained by probit analysis. pD2 transforms [−log EC50 (M)] were calculated for each dose-response curve, and means ±SE obtained for each peptide.
Human umbilical cords were obtained from the Mater Misericordiae Hospital, South Brisbane, Queensland within minutes of delivery. The mid-section of the umbilical cord was cut from the placenta, placed in physiological salt solution and stored at 5° C. for up to 24 hrs. […] The fetal arteries were dissected out and cut into longitudinal strips. The intimal surface of the arteries was rubbed with a cotton bud to remove the endothelium. Strips approximately 2 cm×3 mm were suspended in organ baths under 20 mN of resting tension. Arterial strips were tested repeatedly with peptides following a 60 min drug-free period of rest between assays (Taylor et al. (1994), Inflammation, in press).

serum carboxypeptidases = test: Stability toward serum carboxypeptidases (incubation in normal human serum, HPLC); format: in vitro ADME; details: 37° C., 1 h
Protocol: FIG. 10. HPLC profiles of decapeptide analogs. FIG. 10A: HPLC of […] (peptide/Sequence I.D. No. 2); a=purified peptide; b=des-Arg peptide ([…]; Sequence I.D. No. 24); c=des-Arg peptide in saline, no incubation; d=des-Arg peptide in saline with incubation for 1 h at 37° C.; e=des-Arg peptide in normal human serum with incubation for 1 h at 37° C. FIG. 10B: HPLC of […]aR (Sequence I.D. No. 10); a=purified peptide; b=peptide in saline, no incubation; c=peptide in saline with incubation for 1 h at 37° C.; d=peptide in normal human serum with incubation for 1 h at 37° C. Solvent system 1: 70 mM triethylamine/phosphoric acid buffer, pH-2.3. Solvent system 2: 60% acetonitrile in the Solvent 1 buffer. Linear gradient of 30-50% solvent 2 at.1%/min, slope=1 ml/min, absorbance monitored at 214 nm.
Both peptides were incubated in normal human serum at 37° C. for 1 h and thereafter reanalyzed on HPLC.

Row | Molecule | Platelet Aggreg (threshold concentration producing visible platelet aggregation) (guinea-pig platelets) [µM] | EC50 (human neutrophils (PMN) [1]) [µM] | also measured
1 | CC(C)C[C@H](NC(=O)[C@@H]1CCCN1C(=O)[C@H](CS)NC(=O)[C@H](CC(=O)O)NC(=O)[C@H](CCCCN)NC(=O)[C@H](Cc1ccccc1)NC(=O)[C@H](CO)NC(=O)[C@@H](N)Cc1ccc(O)cc1)C(=O)N[C@@H](CS)C(=O)N[C@@H](CCCNC(=N)N)C(=O)O [peptide 17] (H-YSFKDCPLCR-OH; N-terminus assumed) | 4.1 | 224 | –
2 | CSCC[C@H](NC(=O)[C@H](CC(=O)O)NC(=O)[C@H](CCCCN)NC(=O)[C@H](Cc1ccccc1)NC(=O)[C@H](CO)NC(=O)[C@@H](N)Cc1ccc(O)cc1)C(=O)N[C@@H](CCC(N)=O)C(=O)N[C@@H](CC(C)C)C(=O)N[C@H](C)C(=O)N[C@@H](CCCNC(=N)N)C(=O)O [peptide 8] | 20 | 1.2 | EC50 (human neutrophils (PMN) [2]): 32 µM
3 | YSFKDMPLGR-OH [peptide 5] | 6.3 | – | increase in potency in spasmogenic and aggregatory activities relative to peptide 2 (human fetal artery; across spasmogenic and platelet aggregation assays (Tables 2 and 3)): 4- to 10 fold; log potency ratio at the EC50 level compared to C5a (human fetal artery; fetal artery): 2.01±0.12; % of C5a potency (human fetal artery; fetal artery, from log potency ratio at EC50 level): 1%
4 | YSFKDCPLGR-OH [peptide 16] | 2.3 | 19.5 | –
5 | YSFKDMQPGR-OH [peptide 4] | 500 | – | –
6 | YSFKGMLLGR-OH [peptide 20] | 10.5 | – | potency compared with peptide 2 in human fetal artery (human fetal artery; in words): about two times more potent; potency compared with peptide 2 in guinea-pig platelet assay (guinea-pig platelets; in words): about two times more potent
7 | YSFKGLLLGR-OH [peptide 21] | 21 | – | –
8 | YSFKDAPLGR-OH [peptide 15] | 7.4 | – | –
9 | YSFKGMPLGR-OH [peptide 23] | 6.3 | 2 | EC50 (human neutrophils (PMN) [2]): 49.6 µM
10 | ISFKDMQLGR-OH [peptide 1] | 86.3 | – | –
11 | YSFKPMQLaR (YSFKPMQL[dA]R) [peptide 24] | – | – | potency relative to natural C5a for elicitation of a spasmogenic response (Class 1) (human fetal artery; smooth muscle contraction assay, percent of natural/full C5a potency): 20-30%
12 | YSFKDMPPGR-OH [peptide 6] | 80 | 50 | EC50 (human neutrophils (PMN) [2]): 700 µM
13 | YSFKDMQLPR-OH [peptide 3] | 225 | 500 | –
14 | YSFKDMPAGR-OH [peptide 11] | 101 | 215 | –
15 | CSCC[C@H](NC(=O)[C@H](CC(=O)O)NC(=O)[C@H](CCCCN)NC(=O)[C@H](Cc1ccccc1)NC(=O)[C@H](CO)NC(=O)[C@@H](N)Cc1ccc(O)cc1)C(=O)N[C@@H](CCC(N)=O)C(=O)N[C@@H](CC(C)C)C(=O)N[C@@H](C)C(=O)N[C@@H](CCCNC(=N)N)C(=O)O [peptide 7] | 34 | 48 | EC50 (human neutrophils (PMN) [2]): 1000 µM
16 | YSFKDMQLGR [peptide 2] | – | – | cleavage of the C-terminal Arg (serum carboxypeptidases): significant cleavage
17 | CC(C)C[C@@H]1NC(=O)[C@@H]2CCCN2C(=O)[C@@H](NC(=O)[C@H](CC(=O)O)NC(=O)[C@H](CCCCN)NC(=O)[C@H](Cc2ccccc2)NC(=O)[C@H](CO)NC(=O)[C@@H](N)Cc2ccc(O)cc2)CSSC[C@@H](C(=O)N[C@@H](CCCNC(=N)N)C(=O)O)NC1=O [peptide 18] (HELM PEPTIDE1{Y.S.F.K.D.C.P.L.C.R}$PEPTIDE1,PEPTIDE1,6:R3-9:R3$$$V2.0) | >410 | – | –
18 | CSCC[C@H](NC(=O)CNC(=O)[C@H](CCCCN)NC(=O)[C@H](Cc1ccccc1)NC(=O)[C@H](CO)NC(=O)[C@@H](N)Cc1ccc(O)cc1)C(=O)N[C@@H](CC(C)C)C(=O)N[C@@H](CC(C)C)C(=O)NCC(=O)N[C@H](CCCNC(=N)N)C(=O)O [peptide 22] (HELM PEPTIDE1{Y.S.F.K.G.M.L.L.G.[dR]}$$$$V2.0; N-terminus and C-terminus assumed) | – | – | agonist character compared to natural C5a in spasmogenic assays (human fetal artery; in words): full agonist of diminished potency; antagonist activity against C5a (human fetal artery; tested at concentrations below those causing contraction or aggregation): devoid of any antagonistic activity
19 | YSFKDMQIGR [peptide 9] | 150 | – | –
20 | C5a: C5a anaphylatoxin, 74-residue human glycoprotein; human recombinant C5a (Sigma) or natural C5a used as standard (protein, UniProt P01031 678-751, looked up, C5a anaphylatoxin, C5a anaphylatoxin, 74-residue human glycoprotein; human recombinant C5a (Sigma) or natural C5a used as standard) C5a anaphylatoxin: TLQKKIEEIAAKYKHSVVKKCCYDGACVNNDETCEQRAARISLGPRCIKAFTECCVVASQLRANISHKDMQLGR | 0.023 | – | EC50 (human fetal artery; human fetal artery contraction, mean EC50 from individual experiments): 0.018 µM; EC50 (human neutrophils (PMN) [1]; human neutrophils, read-out: PMN Polarization EC50): 0.0013 µM; EC50 (human neutrophils (PMN) [2]; human neutrophils, β-glucuronidase release, read-out: PMN Enzyme Release EC50): 0.0123 µM

From patent US6465614B1, “High-affinity response-selective C-terminal analogs of C5a anaphylatoxin” (priority 1994, dated 2002)
